The text below walks through data of patent US20260374814A1, “Synthetic Peptide And Construct” (TOAGOSEI CO., LTD, priority 2022, published 2026).

FAM = 5(6)-carboxyfluorescein

This experiment relates to NSC-34 cells. Put plainly: Evaluation of Cell Membrane Permeability by Flow Cytometry (transfer of FAM construct into NSC-34 cells). It counts as cell-based. The settings on record: NSC-34 cells (mouse motor neuron-like hybrid cell line); 20 μM in culture medium; 20 hours at 37 °C, 5% CO2; flow cytometer, detector FL2. Here is the method:
As the eukaryotic cells, NSC-34 cells (mouse motor neuron-like hybrid cell line) were used and the cell membrane permeability of the peptides 1 to 3 was analyzed. As a culture medium of the NSC-34 cell, 10% fetal bovine serum (FBS)-containing Dulbecco's modified Eagle's medium (DMEM (Cat No. 044-29765, manufactured by FUJIFILM Wako Pure Chemical Corporation)) was used. The samples 1 to 3 were each dissolved in dimethyl sulfoxide (DMSO) to prepare sample solutions 1 to 3 with a sample concentration of 4 mM. Then, the sample solutions were diluted in the culture medium to prepare 40 μM sample solutions 1 to 3. The aforementioned prepared sample solutions 1 to 3 were used in Examples 1 to 3, and the FAM solution was used in Reference Example 1.
The NSC-34 cell was suspended in the culture medium to prepare a cell suspension of 2×10^5 cells/mL. The cell suspension was added by 1 mL to a well of a commercially available six-hole (well) plate (manufactured by AGC TECHNO GLASS Co., Ltd.) so as to seed the NSC-34 cell to be 2×10^5 cells/well. Next, 1 mL of the 40 μM sample solution 1 was added to the well so that the sample concentration in the culture medium in the well became 20 μM. After that, the six-well plate was left at rest in a cell culture apparatus, and incubated for 20 hours at 37 °C under a 5% CO2 condition.
After the 20-hour incubation, the culture supernatant was removed from the well and the cells in the well were cleaned twice with 1 mL of PBS. Next, 100 μL of the 0.25% trypsin/EDTA solution was added to the well and the incubation was performed for three minutes at 37 °C. After the incubation, 900 μL of the culture medium was added to the well to deactivate the trypsin. Subsequently, the cell suspension in the well was transferred to a tube and the cells were collected. This tube was subjected to five-minute centrifugal separation at 4 °C under a condition of 210×g. […]
Regarding the obtained cells (cell pellet), the cell membrane permeability of the sample 1 was analyzed using a flow cytometer. […]
Using the aforementioned flow cytometer, gating based on forward scatter (FSC) and side scatter (SSC) was performed to set a gate about a cell group to be analyzed, and the fluorescence intensity was measured about the cell group in this gate. […] The fluorescence intensity was measured using a fluorescence detector FL2 of the flow cytometer (optimum detection wavelength around 543 nm) capable of detecting the fluorescence wavelength of FAM. Regarding this measurement result, the analysis was performed using commercially available analysis software “FlowJo” (manufactured by TreeStar) to obtain mean fluorescence intensity (MFI) of the cell group to be measured. […]

For “5(6)-carboxyfluorescein [Reference Example 1, reference compound]”, the “MFI (mean fluorescence intensity)” value is on record as 10.9.
For “Ac-SASASAG-FAM (Ac-SASASAG-{FAM}) [Example 2, construct: peptide 2 (SASASAG), N-terminus acetylated, with FAM bonded to the C-terminus amino acid residue]”, the “MFI (mean fluorescence intensity)” value came to 19.2.
For the substance “Ac-SASASASAG-FAM (Ac-SASASASAG-{FAM}) [Example 3, construct: peptide 3 (…), N-terminus acetylated, with FAM bonded to the C-terminus amino acid residue]”, the “MFI (mean fluorescence intensity)” value is recorded as 22.8.
As for Ac-SASAG-FAM [Example 1], the figure is 20.9.
